From patent US20130225641A1, “ANTICANCER COMPOUNDS AND PREPARATION METHODS THEREOF” (priority 2010, published 2013)

Columns and labels:
MCF-7 = test: MTT cytotoxicity, MCF-7; format: cell-based; conditions: Homo sapiens, MCF7, MCF-7, Breast, 72 hrs, read-out: LC50 (the source's name)
Method: (§1) The cytotoxicity of ZTP and ZTQ was analyzed by using human tumor cell lines. Human tumor cell lines were purchased from ATCC and NCI, and cultured in DMEM medium containing 10% FBS at 37° C. in 5% CO2 in an incubator. The cells grown to confluence were used for cytotoxicity analysis. The cells were digested with trypsin, washed with the culture medium, and then counted. 33 tumor cell lines were cultured. The cells were seeded at a density of 3000-6000 cells/well in a 96-well plate and incubated for 16-24 hrs. Then, various concentrations of ZTP or ZTQ dissolved in DMSO were added, and cultured for 72 hrs. The drug-treated cells and control cells were analyzed by MTT.

ACHN = test: MTT cytotoxicity, ACHN; format: cell-based; conditions: Homo sapiens, Renal, 72 hrs, read-out: LC50 (the source's name)
Method: as §1

MDA-MB-231 = test: MTT cytotoxicity, MDA-MB-231; format: cell-based; conditions: Homo sapiens, MDA-MB-231, Breast, 72 hrs, read-out: LC50 (the source's name)
Method: as §1

U-251 = test: MTT cytotoxicity, U-251; format: cell-based; conditions: Homo sapiens, U-251, Glioblastoma, 72 hrs, read-out: LC50 (the source's name)
Method: as §1

CNE-2Z = test: MTT cytotoxicity, CNE-2Z; format: cell-based; conditions: Homo sapiens, CNE2Z, Nasopharyngeal, 72 hrs, read-out: LC50 (the source's name)
Method: as §1

Caki-1 = test: MTT cytotoxicity, Caki-1; format: cell-based; conditions: Homo sapiens, Caki-1, Renal, 72 hrs, read-out: LC50 (the source's name)
Method: as §1

Widr = test: MTT cytotoxicity, Widr; format: cell-based; conditions: Homo sapiens, Colonic, 72 hrs, read-out: LC50 (the source's name)
Method: as §1

[1] = Pharmacokinetic study in mice; format: in vivo; conditions: both sexes, mouse, po, BALB/c mice, single dose of 100 mg/kg orally by gavage, plasma, Mean +/− SD; for half-life: read-out: T½ (converted)
Method: BALB/c mice (2 males and 2 females) of 8 weeks old were administered with the compounds ZTP and ZTQ (formulated with 15% Captsol or a carrier) at a single dose of 100 mg/kg. 0.5, 1, 3, 6, 12, 24, 48, and 72 hrs after administration, blood was taken from ophthalmic vein and plasma was prepared therefrom, to determine the plasma concentrations of ZTP and ZTQ. The pharmacokinetic parameters of the compounds ZTP and ZTQ given orally by gavage in the 4 mice are summarized as below (Tables 2 and 3): […]

MCF-10a = test: MTT cytotoxicity, MCF-10a normal mammary epithelial cell; format: cell-based, human; conditions: cells still grow well at a concentration up to 30 μm
Method: [Worded in the source for another cell line; this cell line is reported under the same test.] as §1

[2] = as above; format: cell-based, human; conditions: human, MCF-10a normal mammary epithelial cells; MCF-10a, Normal mammary epithelial cell; 72 hrs, MTT; read-out: LC50
Method: [Worded in the source for another cell line; this cell line is reported under the same test.] as §1

HT29 = test: MTT cytotoxicity, HT29; format: cell-based; conditions: Homo sapiens, HT-29, HT29, Colonic, 72 hrs, read-out: LC50 (the source's name)
Method: as §1

SK-MEL-5 = test: MTT cytotoxicity, SK-MEL-5; format: cell-based; conditions: Homo sapiens, SK-MEL-5, Skin (melanoma), 72 hrs, read-out: LC50 (the source's name)
Method: as §1

LnCAP = test: MTT cytotoxicity, LnCAP; format: cell-based; conditions: Homo sapiens, Prostatic, 72 hrs, read-out: LC50 (the source's name)
Method: as §1

D145 = test: MTT cytotoxicity, D145; format: cell-based; conditions: Homo sapiens, D145, Prostatic, 72 hrs, read-out: LC50 (the source's name)
Method: as §1

786-O = test: MTT cytotoxicity, 786-O; format: cell-based; conditions: Homo sapiens, 786-0, Renal, 72 hrs, read-out: LC50 (the source's name)
Method: as §1

CCL-247 = test: MTT cytotoxicity, CCL-247; format: cell-based; conditions: Homo sapiens, CCL-247, Colonic, 72 hrs, read-out: LC50 (the source's name)
Method: as §1

AU-565 = test: MTT cytotoxicity, AU-565; format: cell-based; conditions: Homo sapiens, AU565, AU-565, Breast, 72 hrs, read-out: LC50 (the source's name)
Method: as §1

[3] = Acute toxicity studies in mice; format: in vivo; conditions: for death of test mice: single dose of 500 mg/kg and divided doses of 100 mg/kg
From the text: After tests, the mice were sacrificed for pathological analysis.

SN12C = test: MTT cytotoxicity, SN12C; format: cell-based; conditions: Homo sapiens, Renal, 72 hrs, read-out: LC50 (the source's name)
Method: as §1

[4] = Side effects in tumor transplanted nude mice; format: in vivo, nude mice (nu/nu); conditions: during treatment
Method: T-cell deficient nude mice (nu/nu) of 6 weeks old were purchased from Charles River Laboratory, and housed and treated in a sterile environment following Institutional Animal Care & Use Committee Program. 48 mice were respectively subcutaneously inoculated on ribbed belly with 5×10^6 human liver cancer cells (HepG3B), human lung caner cells (NCI-H23), and human colon cancer cells (HCT-116) suspended in 0.2 ml HBSS/matrigel (50:50, V/V). When the tumor grew to have an average diameter of 7-8 mm and a volume of about 100-200 mm^3, 24 mice were picked up, and assigned to treatment groups (16 animals/2 groups), and a control group (8 animals). The 2 treatment groups were administered with the compounds ZTP and ZTQ dissolved in 15% Captsol respectively at a dose of 30 mg/kg and 60 mg/kg, and the control group only received an excipient (15% Captsol).
The dose schedule of the test compounds in the tumor transplanted nude mice was as follows: the compounds ZTP and ZTQ dissolved in 15% Captsol were daily orally administered as a 200 μl solution containing 0.75 mg of ZTP and 1.5 mg of ZTQ for 5 days/week over 3 consecutive weeks, followed by one-week break; and the control group was only administered with 200 μl of the placebo (15% Captsol) for 3 weeks, followed by 1 week of break. The two groups of animals were housed separately, and allowed to free access to food.

[5] = divided doses of 100 mg/kg, observed 4 weeks
[6] = single dose of 500 mg/kg, observed 1 week

SMILES | CC50 (MCF-7) | CC50 (ACHN) | CC50 (MDA-MB-231) | CC50 (U-251) | CC50 (CNE-2Z) | CC50 (Caki-1) | CC50 (Widr) | Cmax [1] | Tmax [1] | half-life [1] | susceptibility of normal human mammary epithelial cells (MCF-10a) (MCF-10a) | CC50 at 72 h [2] | CC50 (HT29) | CC50 (SK-MEL-5) | CC50 (LnCAP) | CC50 (D145) | CC50 (786-O) | CC50 (CCL-247) | CC50 (AU-565) | acute toxicity [3, 5] | also measured
CNC(=O)c1cc(Oc2ccc(NC(=S)Nc3ccc(Cl)c(C(F)(F)F)c3)cc2)ccn1 [ZTP, N-[4-chloro-3-(trifluoromethyl)phenyl]-[4-(N-methyl-formamide)(4-pyridyloxy)phenyl]-thiourea] | 2210 nM | 1610 nM | 1190 nM | 3670 nM | 1890 nM | 1120 nM | 950 nM | 51 µM | 6.4 h | 4.1 h | insusceptible | > 30000 nM | 1190 nM | 1990 nM | 1050 nM | 1590 nM | 1750 nM | 2410 nM | 1890 nM | no obvious toxicity | death of test mice [3]: no death occurs; acute toxicity [3, 6]: no obvious toxicity; CC50 (SN12C): 3210 nM
CNC(=O)c1cc(Sc2ccc(NC(=S)Nc3ccc(Cl)c(C(F)(F)F)c3)cc2)ccn1 [ZTQ, N-[4-chloro-3-(trifluoromethyl)phenyl]-[4-(N-methyl-formamide)(4-pyridylthio)phenyl]-thiourea] | 1700 nM | 1210 nM | 1030 nM | 2500 nM | 1310 nM | 910 nM | 810 nM | 52 µM | 6.6 h | 4.2 h | insusceptible | > 30000 nM | 920 nM | 1540 nM | 820 nM | 1230 nM | 1260 nM | 1700 nM | 1370 nM | no obvious toxicity | side effect, including the change in body weight [4]: no obvious side effect; death of test mice [3]: no death occurs; acute toxicity [3, 6]: no obvious toxicity; CC50 (SN12C): 2200 nM
